From paper PMC8881610 (Nature Communications, 2022)
Like-named read-outs stand apart in the source and are kept apart here.

How the values were obtained:
GCGR = GCGR (Homo sapiens, UniProt P47871); assay: Whole-cell binding assay, competition with 125I-GCG; set-up: V5 (C); 6×His (C); expressed in transfected cells; host or cells: CHO-K1
Protocol: (§1) Human embryonic kidney 293 cells containing SV40 large T-antigen (HEK293T) were cultured in DMEM (Gibco) supplemented with 10% (v/v) fetal bovine serum (FBS, Gibco), 1 mM sodium pyruvate (Gibco) and 100 units/mL penicillin and 100 μg/mL streptomycin at 37 °C in 5% CO2. Chinese hamster ovary (CHO-K1) cells were cultured in F-12 (Gibco) containing 10% FBS, 100 units/mL penicillin and 100 μg/mL streptomycin at 37 °C in 5% CO2. For cAMP and receptor expression assays, HEK293T cells were seeded into 6-well cell culture plates at a density of 7 × 10^5 cells per well. After overnight incubation, cells were transfected with GIPR, GLP-1R or GCGR construct using Lipofectamine 2000 or Lipofectamine 3000 transfection reagent (Invitrogen). For whole-cell binding assay, CHO-K1 cells were seeded into 96-well fibronectin-treated cell culture plates at a density of 3 × 10^4 cells per well. After overnight incubation, cells were transfected with GIPR, GLP-1R or GCGR construct using Lipofectamine 2000 transfection reagent (Invitrogen). Following 24 h culturing, the transfected cells were ready for use.
(§2) For GLP-1R and GCGR, CHO-K1 cells (30,000 cells/well) were seeded into Isoplate-96 plates and incubated for 24 h at 37 °C in 5% CO2. The WT or mutant constructs were transiently transfected using Lipofectamine 2000 transfection reagent as previous described. They were then washed twice using F-12 with 0.1% BSA or 0.1% casein, 33 mM HEPES, and incubated for 2 h at 37 °C. […] Cells were washed three times with ice-cold PBS and lysed in PBS with 1% Triton X-100, 20 mM Tris-HCl. After addition of scintillation cocktail (PerkinElmer), radioactivity (CPM) was counted on a MicroBeta^2 microplate counter (PerkinElmer). Data were normalized to the WT response and analyzed using three-parameter logistic equation.

GIPR = target: T1, GIPR (Homo sapiens, UniProt P48546, Y36A); assay: Whole-cell binding assay, competition with 125I-GIP1-42; set-up: acylated tirzepatide to the full-length or modified; Flag; expressed in transfected cells; settings: GIPR Y36A, CHO-K1
T1 sequence (P48546 22-466 Y36A): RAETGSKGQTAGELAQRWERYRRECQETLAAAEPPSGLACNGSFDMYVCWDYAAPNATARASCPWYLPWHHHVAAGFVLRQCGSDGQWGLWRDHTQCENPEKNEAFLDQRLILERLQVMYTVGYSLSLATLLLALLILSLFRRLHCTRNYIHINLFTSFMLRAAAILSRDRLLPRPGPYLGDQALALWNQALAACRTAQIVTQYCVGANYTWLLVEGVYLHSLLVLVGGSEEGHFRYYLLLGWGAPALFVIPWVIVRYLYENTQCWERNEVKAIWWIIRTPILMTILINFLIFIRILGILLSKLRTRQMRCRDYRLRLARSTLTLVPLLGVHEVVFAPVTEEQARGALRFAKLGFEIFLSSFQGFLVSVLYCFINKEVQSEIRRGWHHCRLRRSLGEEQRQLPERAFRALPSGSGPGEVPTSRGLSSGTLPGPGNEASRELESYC
Procedure, shortened: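 Transiently transfected CHO-K1 cells expressing WT or mutant GIPR were washed in F-12 with 0.1% BSA or 0.1% casein and 33 mM HEPES, then incubated 2 h at 37 °C. After ice-cold PBS washes, cells were lysed and bound radioactivity counted (CPM).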

GLP-1R [1] = target: T2, GLP-1R (Homo sapiens, UniProt P43220); assay: Whole-cell binding assay, competition with 125I-GLP-1(7-36)NH2; set-up: Flag; expressed in transfected cells
T2 sequence (P43220 24-463): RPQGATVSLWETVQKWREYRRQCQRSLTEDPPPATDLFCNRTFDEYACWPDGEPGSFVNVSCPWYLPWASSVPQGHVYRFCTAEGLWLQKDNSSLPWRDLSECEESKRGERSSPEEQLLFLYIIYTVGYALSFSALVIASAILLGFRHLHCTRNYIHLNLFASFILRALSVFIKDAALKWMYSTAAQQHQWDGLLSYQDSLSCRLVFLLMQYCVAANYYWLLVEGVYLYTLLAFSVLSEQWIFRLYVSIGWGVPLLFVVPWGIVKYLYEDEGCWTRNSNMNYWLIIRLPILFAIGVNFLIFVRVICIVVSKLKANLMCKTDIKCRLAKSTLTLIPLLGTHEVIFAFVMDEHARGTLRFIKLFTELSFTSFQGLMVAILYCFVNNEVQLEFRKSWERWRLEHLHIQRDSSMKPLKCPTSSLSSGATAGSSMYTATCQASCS
Protocol: as §1, §2

GLP-1R [2] = target: T2, GLP-1R; assay: cAMP accumulation assay, GLP-1R WT, mutant or modified constructs; type: cell-based; set-up: Flag; expressed in transfected cells; host or cells: HEK293T; settings: HEK293T; for Emax: HEK-293T
Protocol: as §1
The human GLP-1R was modified with its native signal sequence (M1-P23) replaced by the HA signal peptide to facilitate receptor expression. To obtain a GLP-1R–Gs complex with good homogeneity and stability, we used the NanoBiT tethering strategy, in which the C terminus of GLP-1R was directly attached to LgBiT subunit followed by a TEV protease cleavage site and a double MBP tag. […] The constructs were cloned into both pcDNA3.1 and pFastBac vectors for functional assays in mammalian cells and protein expression in insect cells, respectively. Other constructs including the full-length and various mutants of human GLP-1R were cloned into pcDNA3.1 vector for cAMP accumulation and whole-cell binding assays.
For GIPR, GLP-1R and GCGR, multi-targeting agonist stimulated cAMP accumulation was measured by a LANCE Ultra cAMP kit (PerkinElmer). After 24 h culture, the transfected cells were seeded into 384-well microtiter plates at a density of 3,000 cells per well in HBSS supplemented with 5 mM HEPES, 0.1% (w/v) BSA or 0.1% (w/v) casein and 0.5 mM 3-isobutyl-1-methylxanthine. The cells were stimulated with different concentrations of peptide agonists for 40 min at RT. Eu-cAMP tracer and ULight^TM-anti-cAMP were then diluted by cAMP detection buffer and added to the plates separately to terminate the reaction. Plates were incubated at RT for 1 h and the fluorescence intensity measured at 620 nm and […] by an EnVision multilabel plate reader (PerkinElmer).

GCGR, sequence (P47871 26-477): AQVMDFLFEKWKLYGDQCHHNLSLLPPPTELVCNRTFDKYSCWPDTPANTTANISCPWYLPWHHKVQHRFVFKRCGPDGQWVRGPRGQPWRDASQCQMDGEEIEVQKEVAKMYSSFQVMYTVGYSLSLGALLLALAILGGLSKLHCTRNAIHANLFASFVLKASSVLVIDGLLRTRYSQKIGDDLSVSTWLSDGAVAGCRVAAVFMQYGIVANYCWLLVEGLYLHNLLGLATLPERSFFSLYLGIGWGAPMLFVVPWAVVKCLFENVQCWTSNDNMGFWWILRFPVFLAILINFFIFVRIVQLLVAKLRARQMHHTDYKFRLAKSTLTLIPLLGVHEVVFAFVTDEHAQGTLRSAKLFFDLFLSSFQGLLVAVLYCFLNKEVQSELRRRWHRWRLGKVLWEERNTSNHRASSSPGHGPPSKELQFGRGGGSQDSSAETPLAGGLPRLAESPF

CCCCCCCCCCCCCCCC(=O)N[C@@H](CCC(=O)NCCCC[C@H](NC(=O)[C@H](CC(=O)O)NC(=O)[C@H](CO)NC(=O)[C@@H](NC(=O)[C@H](Cc1ccccc1)NC(=O)[C@@H](NC(=O)CNC(=O)[C@H](CCC(N)=O)NC(=O)C(C)(C)NC(=O)[C@@H](N)Cc1c[nH]cn1)[C@@H](C)O)[C@@H](C)O)C(=O)N[C@@H](CO)C(=O)N[C@@H](CCCCN)C(=O)N[C@@H](Cc1ccc(O)cc1)C(=O)N[C@@H](CC(C)C)C(=O)N[C@@H](CC(=O)O)C(=O)N[C@@H](CCC(=O)O)C(=O)N[C@@H](CCCNC(=N)N)C(=O)N[C@@H](C)C(=O)N[C@@H](C)C(=O)N[C@@H](CCC(N)=O)C(=O)N[C@@H](CC(=O)O)C(=O)N[C@@H](Cc1ccccc1)C(=O)N[C@H](C(=O)N[C@@H](CCC(N)=O)C(=O)N[C@@H](Cc1c[nH]c2ccccc12)C(=O)N[C@@H](CC(C)C)C(=O)N[C@@H](CC(C)C)C(=O)N[C@@H](CC(=O)O)C(=O)NCC(=O)NCC(=O)N1CCC[C@H]1C(=O)N[C@@H](CO)C(=O)N[C@@H](CO)C(=O)NCC(=O)N[C@@H](C)C(=O)N1CCC[C@H]1C(=O)N1CCC[C@H]1C(=O)N1CCC[C@H]1C(=O)N[C@@H](CO)C(N)=O)C(C)C)C(=O)O [Peptide 20]
IC50 (GCGR; Fig. 7c receptor binding profile, n = 3 in duplicate, SEM, read-out: GCGR (pIC50 ± S.E.M.) (converted)): 107 nM
IC50 (GCGR; GCGR WT, 0.1% BSA, CHO-K1, read-out: Binding pIC50 (converted)): 55 nM
IC50 (GCGR; GCGR WT, 0.1% casein, CHO-K1, read-out: Binding pIC50 (converted)): 16.6 nM
binding Span (GCGR; GCGR WT, CHO-K1): 99.29 ± 3.10 % WT
IC50 (GCGR; GCGR WT, CHO-K1, read-out: binding pIC50 (converted)): 89.1 nM
binding Span (GIPR): 48.19 ± 2.73 % WT
IC50 (GIPR; read-out: binding pIC50 (converted)): 16.2 nM
IC50 (GLP-1R [1]; Fig. 7c receptor binding profile, n = 3 in duplicate, SEM, read-out: GLP-1R (pIC50 ± S.E.M.) (converted)): 3.39 nM
binding Span (GLP-1R [1]; GLP-1R WT, 0.1% casein, CHO-K1): 85.25 ± 8.33
binding Span (GLP-1R [1]; GLP-1R WT, CHO-K1): 99.44 ± 2.88 % WT
IC50 (GLP-1R [1]; GLP-1R WT, CHO-K1, read-out: binding pIC50 (converted)): 6.17 nM
EC50 (GLP-1R [2]; GLP-1R WT, read-out: cAMP pEC50 (converted)): 0.00269 nM
EC50 (GLP-1R [2]; GLP-1R, n = 4, SEM, read-out: cAMP pEC50 ± S.E.M. (converted)): 0.00123 nM
Emax (GLP-1R [2]; GLP-1R WT, 0.1% BSA, read-out: cAMP accumulation Emax): 99.24 ± 0.96%
Emax (GLP-1R [2]; GLP-1R WT, 0.1% casein, read-out: cAMP accumulation Emax): 98.5 ± 1.33%
Emax (GLP-1R [2]; GLP-1R WT, read-out: cAMP Emax): 99.6 ± 1.37%
Emax (GLP-1R [2]; GLP-1R, n = 4, SEM, read-out: cAMP Emax ± S.E.M.): 99.6 ± 1.17%
